{"source": "patent US20080166805A1", "about": "“Culturing human cells and tissues in an N-glycolylneuraminic acid-free environment” (The Regents of the University of California, priority 2005, published 2008)", "key": {"Caco-2 cells": {"system": "Caco-2 cells", "experiment": "Competition of free Neu5Ac with free Neu5Gc for incorporation into Caco-2 cells", "format": "cell-based, human", "conditions": "3 mM Neu5Gc for 3 days", "method": "(§1) Neu5Gc and ManNGc Feeding Experiment—Neu5Ac, Neu5Gc or ManNGc were dried, dissolved in the appropriate media supplemented with heat-inactivated human serum, sterilized using a Spin-X® (Corning Inc., Corning, N.Y.) and then added to the cells. The pH of the media containing Sia was adjusted to neutrality using sterilized 1M NaOH before starting the feeding experiment. Cells were cultured in the presence of up to 3 mM free Sia or ManNGc for 1 or 3 days at 37° C. At the end of the feeding, cells were washed with cold PBS, harvested either by scraping or with 2 mM EDTA for fibroblasts, and washed again with cold PBS prior to fractionation.\nFractionation of the Labeled Cells—Washed cell pellets were sonicated into 500 μL of 20 mM sodium phosphate buffer or 20 mM Tris-HCl, pH 7.5, using 4×15 second pulses of a sonicator cell disrupter, model Some Dismembrator (Fisher Scientific, Hampton, N.J.) at a probe setting of 3. The sonicate was centrifuged at 75×g for 15 min., and the pellet obtained consisted primarily of nuclei and unbroken cells. The pellet contained <5% of the incorporated sialic acid as determined using a radioactive tracer (data not shown.) The supernatant was therefore considered as the “total homogenate” fraction. A portion (20%) of the “total homogenate” fraction was taken for protein quantification and Sia analysis by DMB derivatization and HPLC analysis (as discussed below.) The remainder was centrifuged at 100,000×g for 1 h. The resulting pellet, called the “membrane” fraction, was then resuspended by sonication (15 sec.) in 200 μl of sodium acetate buffer, pH 5.5. The 100,000×g supernatant, called the “soluble” fraction was adjusted to 90% ethanol using absolute ice-cold ethanol, and placed overnight at −20° C. The flocculant precipitate, which represents the “soluble protein” fraction, was washed 3 times with 90% ice-cold ethanol and then resuspended in 200 μl of water. The supernatant fluid representing the cytosolic low molecular weight (LMW) fraction was dried and brought up in 100 μL with water prior to Sia analysis. All the Sias in these fractions were released with mild acid hydrolysis if necessary and then analyzed by HPLC after DMB derivatization. Protein quantification was performed on the total homogenate, membrane and soluble protein fractions by using the BCA protein assay kit from Pierce (Rockford, Ill.) In some experiments, the resulting data obtained for the Sia bound to the membrane fraction and to the soluble proteins were pooled and presented here as a High Molecular Weight (HMW) fraction.\nSialic Acid Release, DMB Derivatization and HPLC Analysis—The bound Sias from the total homogenate, membrane and soluble protein fractions were released using 2M acetic acid hydrolysis, 3 h. at 80° C. The released Sias, or free Sias, contained in the soluble LMW fraction were passed through a Microcon® YM-10 filter (Millipore, Bedford, Mass.) prior to DMB derivatization, which was done according to Hara et al., 1989. DMB-Sia derivatives from the different fractions were then analyzed by HPLC using a C18 column (Microsorb Mv-TM 100 A, Varian, Palo Alto, Calif.) Isocratic elution was achieved using 7% methanol, 8% acetonitrile in water during 50 min. at 0.9 ml/min flow. The eluant was monitored by fluorescence.\nQuantification of Sias—For all HPLC chromatograms, the quantification of Sias was done by comparison with known quantities of DMB derivatized Neu5Gc and Neu5Ac used as standards and then reported in terms of pmoles of Sia. For total homogenate, membrane and cytosolic protein fractions, this number was expressed per mg of protein. Due to minor sample-to-sample variations in amounts and recoveries, the data in the Figures is presented as percent of Neu5Gc over total Sias, rather than as absolute amounts."}, "[1]": {"system": "normal human skin fibroblasts (WT)", "experiment": "Neu5Gc/ManNGc feeding experiment, normal human skin fibroblasts", "format": "cell-based", "method": "(§2) Cell Culture—Caco-2 cells were propagated in alpha-MEM containing GLUTAMAX™ (Invitrogen, San Diego, Calif.) and a mixture of ribonucleosides and deoxyribonucleosides (Gibco/Invitrogen, San Diego, Calif.) supplemented with 20% FCS. All the fibroblast cell lines and CHO-K1 cells were cultured in the same media supplemented respectively with 15% non-heat inactivated FCS or 10% heat inactivated FCS. Chimpanzee Fred and human […] EBV-transformed lymphoblasts were cultured in RPMI-1640 (Gibco/Invitrogen, San Diego, Calif.) supplemented with 10% heat inactivated FCS or 15% human serum. All of the cultures were maintained at 37° C., 5% CO2 atmosphere. In order to deplete any remaining Neu5Gc from FCS, the cells were split and cultured prior to Neu5Gc feeding experiments for at least 4 days in alpha-MEM supplemented with an adequate percentage of heat-inactivated premium human serum instead of FCS. The cells were then maintained under the same conditions during the whole feeding experiment. The human serum was heat inactivated at 56° C. for 30 min. before use.\nas §1\nFractionation of the Labeled Cells—Washed cell pellets were sonicated into 500 μL of 20 mM sodium phosphate buffer or 20 mM Tris-HCl, pH 7.5, using 4×15 second pulses of a sonicator cell disrupter, model Some Dismembrator (Fisher Scientific, Hampton, N.J.) at a probe setting of 3. The sonicate was centrifuged at 75×g for 15 min., and the pellet obtained consisted primarily of nuclei and unbroken cells. The pellet contained <5% of the incorporated sialic acid as determined using a radioactive tracer (data not shown.) The supernatant was therefore considered as the “total homogenate” fraction. A portion (20%) of the “total homogenate” fraction was taken for protein quantification and Sia analysis by DMB derivatization and HPLC analysis (as discussed below.) The remainder was centrifuged at 100,000×g for 1 h. The resulting pellet, called the “membrane” fraction, was then resuspended by sonication (15 sec.) in 200 μl of sodium acetate buffer, pH 5.5. The 100,000×g supernatant, called the “soluble” fraction was adjusted to 90% ethanol using absolute ice-cold ethanol, and placed overnight at −20° C. The flocculant precipitate, which represents the “soluble protein” fraction, was washed 3 times with 90% ice-cold ethanol and then resuspended in 200 μl of water. […] All the Sias in these fractions were released with mild acid hydrolysis if necessary and then analyzed by HPLC after DMB derivatization. Protein quantification was performed on the total homogenate, membrane and soluble protein fractions by using the BCA protein assay kit from Pierce (Rockford, Ill.) In some experiments, the resulting data obtained for the Sia bound to the membrane fraction and to the soluble proteins were pooled and presented here as a High Molecular Weight (HMW) fraction. […]"}, "[2]": {"system": "human LB EBV-transformed lymphoblasts", "experiment": "Neu5Gc/Neu5Ac feeding experiment, human EBV-transformed lymphoblasts", "format": "cell-based", "conditions": "human lymphoblasts fed 3 mM for 3 days", "method": "as §2\nas §1, with “At the end of the feeding, cells were washed with cold PBS, harvested either by scraping or with 2 mM EDTA for fibroblasts, and washed again with cold PBS prior to fractionation.” left out\nFractionation of the Labeled Cells—Washed cell pellets were sonicated into 500 μL of 20 mM sodium phosphate buffer or 20 mM Tris-HCl, pH 7.5, using 4×15 second pulses of a sonicator cell disrupter, model Some Dismembrator (Fisher Scientific, Hampton, N.J.) at a probe setting of 3. […] The pellet contained <5% of the incorporated sialic acid as determined using a radioactive tracer (data not shown.) The supernatant was therefore considered as the “total homogenate” fraction. A portion (20%) of the “total homogenate” fraction was taken for protein quantification and Sia analysis by DMB derivatization and HPLC analysis (as discussed below.) The remainder was centrifuged at 100,000×g for 1 h. […] All the Sias in these fractions were released with mild acid hydrolysis if necessary and then analyzed by HPLC after DMB derivatization. Protein quantification was performed on the total homogenate, membrane and soluble protein fractions by using the BCA protein assay kit from Pierce (Rockford, Ill.) In some experiments, the resulting data obtained for the Sia bound to the membrane fraction and to the soluble proteins were pooled and presented here as a High Molecular Weight (HMW) fraction. […]"}, "[3]": {"conditions": "normal fibroblasts fed 3 mM for 3 days"}}, "data": [{"smiles": "O=C(CO)N[C@H]1[C@H]([C@H](O)[C@H](O)CO)OC(O)(C(=O)O)C[C@@H]1O", "note": "(stereo partly drawn) [Neu5Gc, N-glycolylneuraminic acid]", "values": [{"measurement": "Neu5Gc as percent of total Sia, membrane-bound fraction", "setting": "Caco-2 cells; no added Neu5Ac", "result": 41, "unit": "%"}, {"measurement": "Neu5Gc as percent of total Sia, TH", "setting": "Caco-2 cells; no added Neu5Ac (baseline incorporation)", "result": 56, "unit": "%"}, {"measurement": "Neu5Gc as percent of total Sia, HMW fraction", "setting": "[1]; [3]", "result": 39, "unit": "%"}, {"measurement": "Neu5Gc as percent of total Sia, TH fraction", "setting": "[1]; [3]", "result": 28, "unit": "%"}, {"measurement": "Neu5Gc as percent of total Sia, cytosolic LMW fraction", "setting": "[1]; [3]", "result": 41, "unit": "%"}, {"measurement": "percent of Neu5Gc incorporation into membrane-bound glycoconjugates", "setting": "[1]; normal wild-type (WT) fibroblasts fed 3 mM for 3 days", "result": 37, "unit": "%"}, {"measurement": "Neu5Gc as percent of total Sia, HMW fraction", "setting": "[2]", "result": 51, "unit": "%"}, {"measurement": "Neu5Gc as percent of total Sia, LMW cytosolic fraction", "setting": "[2]", "result": 80, "unit": "%"}, {"measurement": "Neu5Gc as percent of total Sia, TH fraction", "setting": "[2]", "result": 67, "unit": "%"}]}]}
